# Tested on: U87 (Human glioblastoma)
# Assay: U87 glioblastoma subcutaneous xenograft tumor growth, excised tumor weight
# Type: in vivo
# Conditions: for effect on tumor weight versus untreated vehicle: female athymic mice with U87 implants, 10 mg/kg body weight fed, compared with Vehicle 73.8 mg; for Tumor weight: female athymic mice, subcutaneous U87 implants (two per mouse), fed 10 mg/kg body weight, tumors excised and weighed at termination (about one week of treatment), average of six tumors, Vehicle 73.8 mg
# Procedure: The effect of the hydrogenated and non-hydrogenated cannabis oil on tumor growth and angiogenesis were evaluated by implanting U87 (Human glioblastoma) 3×10^6 cells (50% matrigel) in […] female athymic mice. The site of implantation was subcutaneous with two implants per mouse. The date of implantation was Feb. 1, 2016 and the date of administering treatment was Feburary 3, 2016. There were three mice in each of the following groups, and the treatment consisted of feeding each of the three mice 10 mg/kg body weight of the treatment corresponding to each one of the following groups: • 1. Untreated Vehicle • 2. THCA • 3. CBDA • 4. HCBDA • 5. HTHCA
# The termination date was Feb. 11, 2016. On this date, the tumors were excised and weighed. The results are shown in Table 1 and illustrated in the below plot.
# It was assumed that the excised tumor weight for the “Untreated Vehicle” was essentially equivalent to its starting tumor weight.
Compound,effect on tumor weight versus untreated vehicle,Tumor weight
"C=C(C)[C@@H]1CCC(C)=C[C@H]1c1c(O)cc(CCCCC)c(C(=O)O)c1O [CBDA, Δ-9-cannabidiolic acid]",effective to reduce tumor weight,39.1 mg
"CCCCCc1cc(O)c([C@@H]2CC(C)CC[C@H]2C(C)C)c(O)c1C(=O)O (some centres unmarked) [HCBDA, hydrogenated 9-cannabidioc acid]",effective to reduce tumor weight,32.6 mg
"CCCCCc1cc2c(c(O)c1C(=O)O)[C@@H]1CC(C)CC[C@H]1C(C)(C)O2 (some centres unmarked) [HTHCA, hydrogenated 9-tetrahydrocannabinoic acid]",effective to reduce tumor weight,44.5 mg
"CCCCCc1cc2c(c(O)c1C(=O)O)[C@@H]1C=C(C)CC[C@H]1C(C)(C)O2 [THCA, Δ-9-tetrahydrocannabinoic acid]",effective to reduce tumor weight,46.0 mg
